Experiments:
C2C12 muscle myotubes = experiment: Muscle protein synthesis in C2C12 myotubes under TNF-α stress (radiolabeled phenylalanine incorporation); type: cell-based, mouse; details: for protein synthesis as compared to the control: synthesis measured over following 4 hours
Procedure: The role of EGCg, in the form of […]® brand green tea extract that contains about 95% EGCg (available from DSM of the Netherlands), in stimulating muscle protein synthesis was evaluated in an in vitro cell-based assay using mouse C2C12 muscle myotubes. This assay measured the incorporation of radiolabeled phenylalanine into myotubes in response to various stimuli. C2C12 myoblasts passaged in FCS DMEM (Fetal Calf Serum Dulbecco's Modified Eagle's Medium) were differentiated to myotubes in HS DMEM (Horse Serum Dulbecco's Modified Eagle's Medium). The myotubes were labeled for 24 hours with L-[2,6-3H] phenylalanine prior to compound experimentation. They were then incubated with TNF-α (50 ng/ml) for 2 hours in the absence, or presence of 10 μM or 50 μM of EGCg, and protein synthesis was measured over the following 4 hours.

mTOR = mTOR activation in skeletal muscle of aged rats, 8-week diet study; type: in vivo, Sprague Dawley rats; details: 200 mg/kg body weight EGCg per day in AIN-93M diet, 8 weeks, rats aged 20 months; p<0.05
Procedure: (§1) Each of 12 aged Sprague Dawley rats (SD) rats (20 months) were chronically fed the following diets ad libitum for 8 weeks to evaluate the effects on the progression of sarcopenia in the rats:
(§2) Control diet: AIN-93M (AIN-93M diets are well known balanced diets for rodents); and
(§3) Test diet: AIN-93M+200 mg/kg body weight of EGCg.
(§4) The AIN-93M diet was supplemented with EGCG (in the form of TEAVIGO® brand green tea extract) at a concentration of 5 gm/kg diet to deliver a dose of 200 mg/kg body weight of EGCg per day to the SD rat (approximate body weight 500 gm, approximate food intake=20 gm/d) in the test diet.

gastrocnemius muscle = experiment: Gastrocnemius muscle wet weight of aged rats, 8-week diet study; type: in vivo, Sprague Dawley rats; details: 200 mg/kg body weight EGCg per day in diet, 8 weeks, rats aged 20 months
Procedure: as §1, §2, §3, §4
(§5) This increased activation was associated with increases in gastrocnemius muscle wet weight and muscle fiber cross sectional area, as shown respectively in FIGS. 3 and 4. Excised gastrocnemius muscles were weighed at the end of the 8 weeks. […] With respect to the muscle fiber cross sectional area, 8-micron muscle sections from the SD rats were dissected, mounted, and stained using hematoxylin & eosin at the end of the 8 week period. Approximately 400 fibers were measured per sample. The results are shown in FIG. 4, in which the SD rats fed the test diet (EGCg treatment) have higher cross sectional areas as compared to that of the SD rats fed the control diet (p=0.06).

muscle fiber = experiment: Muscle fiber cross sectional area of aged rats, 8-week diet study; type: in vivo, Sprague Dawley rats; details: 200 mg/kg body weight EGCg per day in diet, 8 weeks; p=0.06
Procedure: as §1, §2, §3, §4, §5

[1] = system: 19S regulatory particle ubiquitin proteasome subunits; experiment: Western blot of 19S regulatory particle ubiquitin proteasome subunits, 8-week diet study; type: in vivo, Sprague Dawley rats; details: 200 mg/kg body weight EGCg per day in diet, 8 weeks
Procedure: as §1, §2, §3, §4
(§6) Conversely, markers of muscle atrophy such as the 19S regulatory and 20S core particle ubiquitin proteasome subunits, MuRF1, and MAFbx were lower at the end of the 8 weeks in those SD rats fed the test diet (EGCg treatment) as compared to those fed the control diet. […] The components of the Ubiquitin Proteasome Pathway (UPP) as shown in FIGS. 5-8 were measured by western blotting in rats treated with either the test (EGCg treatment) or the control diets.

[2] = system: 20S core particle ubiquitin proteasome subunits; experiment: Western blot of 20S core particle ubiquitin proteasome subunits, 8-week diet study; type: in vivo, Sprague Dawley rats; details: 200 mg/kg body weight EGCg per day in diet, 8 weeks
Procedure: as §1, §2, §3, §4, §6

[3] = system: muscle ring finger protein 1 (MuRF1); experiment: Western blot of MuRF1, 8-week diet study; type: in vivo, Sprague Dawley rats; details: 200 mg/kg body weight EGCg per day in diet, 8 weeks
Procedure: as §1, §2, §3, §4, §6

[4] = system: muscle atrophy f-box (MAFbx); experiment: Western blot of MAFbx, 8-week diet study; type: in vivo, Sprague Dawley rats; details: 200 mg/kg body weight EGCg per day in diet, 8 weeks
Procedure: as §1, §2, §3, §4, §6

## O=C(O[C@@H]1Cc2c(O)cc(O)cc2O[C@@H]1c1cc(O)c(O)c(O)c1)c1cc(O)c(O)c(O)c1 [EGCg, epigallocatechin gallate]
C2C12 muscle myotubes; 10 μM EGCg plus TNF-α (50 ng/ml, 2 hours), p<0.05
  protein synthesis as compared to the control: 104%
C2C12 muscle myotubes; 50 μM EGCg plus TNF-α (50 ng/ml, 2 hours), p<0.01
  protein synthesis as compared to the control: 109%
mTOR
  increase in intramuscular phosphorylated mTOR expression (mTOR activation) vs control diet: 53%
Gastrocnemius muscle
  greater muscle mass in excised gastrocnemius muscle vs control diet: approximately 5%
Muscle fiber
  muscle fiber cross sectional area vs control diet: higher
[1]
  19S regulatory particle ubiquitin proteasome subunit expression vs control diet: lower
[2]
  20S core particle ubiquitin proteasome subunit expression vs control diet: lower
[3]
  MuRF1 expression vs control diet: lower
[4]
  MAFbx expression vs control diet: lower

## tumor necrosis factor alpha [TNFα, reference compound]
C2C12 muscle myotubes; TNF-α alone, 50 ng/ml, 2 hours, p<0.05
  drop in protein synthesis as compared to the control: 16%

— US20160361291A1, “METHODS FOR INCREASING SKELETAL MUSCLE PROTEIN SYNTHESIS USING GREEN TEA EXTRACT” (ABBOTT LABORATORIES, priority 2013, published 2016)
